Literature values as cited in patent US20230414697A1, “ENHANCED GINGEROLS FOR PATIENTS SUFFERING FROM NAUSEA AND EMESIS” (Aphios Corporation, priority 2020, published 2023).

Tests used:
[1] = post-operative; reported by Bone and colleagues
[2] = ginger 0.5 gm or 1 gm, metochlopramide 10 mg
[3] = 2.0 gm oral ginger, 1.25 mg intravenous droperidol, placebo; 24 hour period following surgery

Question: Which vomiting vs placebo [1] does the source give for `CCN(CC)CCNC(=O)c1cc(Cl)c(N)cc1OC` [metochlopramide] here?
Answer: less vomiting

Question: And the “frequency of emesis, differences between the three arms” value (ginger, metochlopramide, placebo, post-operative)?
Answer: no significant differences

Question: What about the patients nauseated (post operative, placebo 41%) of the same compound?
Answer: placebo, 27%

Question: What about the “post-operative nausea vs placebo” value ([2]; both studies) of the same compound?
Answer: significantly more effective than placebo

Question: What about the “effectiveness for post-operative nausea, ginger compared with metochlopramide” value ([2]; women undergoing gynecologic surgery, two studies) of the same compound?
Answer: equal effectiveness

Question: With `O=C(CCCN1CC=C(n2c(=O)[nH]c3ccccc32)CC1)c1ccc(F)cc1` [droperidol] as the compound, how does the “differences in frequency or severity of post-operative nausea or frequency of post-operative vomiting” value [3] read?
Answer: no differences
